Laboratory results published in patent US9999650B2, “Peptide and peptidomimetic inhibitors” (Ra Pharmaceuticals, Inc., priority 2012, dated 2018).
Read-outs that look alike come from different tables or passages of the source. Numbered stars: 1 amine (or outer) side, 2 acyl side, 3 side chain; on linkers, the order of the positions; unused ones are H or OH. Bridge positions count the residues as written; N and C are the ends. Square brackets hold non-standard residues; d marks the D form. Peptide text beside a SMILES is read from it. * marks the point of attachment. mXylylene = c1cc(C[*:1])cc(C[*:2])c1; Phg = N[C@H](C(=O)O)c1ccccc1; Tle = CC(C)(C)[C@H](N)C(=O)O; Heptanoyl = CCCCCCC(=O)*; Mpa = O=C(O)CCS

Columns and labels:
Format in all cases: biochemical
human plasma kallikrein = target: T1, human plasma kallikrein (Homo sapiens, UniProt P03952); assay: Enzyme inhibition assay (fluorogenic substrate H-Pro-Phe-Arg-AMC)
T1 construct: purchased Enzyme Research Laboratories HPKa 1303
T1 sequence (P03952 20-390 limits assumed): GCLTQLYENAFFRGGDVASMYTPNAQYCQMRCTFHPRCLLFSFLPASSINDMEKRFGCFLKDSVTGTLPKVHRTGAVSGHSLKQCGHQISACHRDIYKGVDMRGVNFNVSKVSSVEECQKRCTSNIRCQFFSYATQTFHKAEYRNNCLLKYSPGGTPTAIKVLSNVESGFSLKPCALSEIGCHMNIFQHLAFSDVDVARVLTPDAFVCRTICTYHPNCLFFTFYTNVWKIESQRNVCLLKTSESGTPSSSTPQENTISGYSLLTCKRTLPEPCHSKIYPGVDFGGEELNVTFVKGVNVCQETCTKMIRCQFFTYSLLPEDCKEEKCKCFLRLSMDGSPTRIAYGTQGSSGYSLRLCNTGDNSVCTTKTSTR
T1 sequence (P03952 391-638 limits assumed): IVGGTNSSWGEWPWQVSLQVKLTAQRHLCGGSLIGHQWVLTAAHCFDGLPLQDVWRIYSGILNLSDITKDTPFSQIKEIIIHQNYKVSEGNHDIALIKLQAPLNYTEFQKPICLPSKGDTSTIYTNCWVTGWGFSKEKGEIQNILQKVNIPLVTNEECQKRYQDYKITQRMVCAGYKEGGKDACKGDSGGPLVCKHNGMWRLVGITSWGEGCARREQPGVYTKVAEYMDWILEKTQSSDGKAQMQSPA
Procedure, shortened: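 Activated enzyme (1 nM final) was preincubated 5 min at room temperature with peptides in 10-point 8-fold dilutions. The buffer was 50 mM Tris-HCl pH 7.2, 150 mM NaCl, 10 mM CaCl2, 0.05% Brij-35. After 1 h at room temperature with 500 μM substrate (final), fluorescence was read at 360/460 nm to derive IC50.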

plasmin = target: T2, plasmin (Homo sapiens, UniProt P00747); assay: Inhibitor specificity IC50 assay, plasmin (Boc-Val-Leu-Lys-AMC); details: substrate Boc-Val-Leu-Lys-AMC
T2 construct: plasmin (Enzyme Research Laboratories, South Bend, Ind.); purchased Enzyme Research Laboratories
T2 sequence (P00747 97-580 limits assumed): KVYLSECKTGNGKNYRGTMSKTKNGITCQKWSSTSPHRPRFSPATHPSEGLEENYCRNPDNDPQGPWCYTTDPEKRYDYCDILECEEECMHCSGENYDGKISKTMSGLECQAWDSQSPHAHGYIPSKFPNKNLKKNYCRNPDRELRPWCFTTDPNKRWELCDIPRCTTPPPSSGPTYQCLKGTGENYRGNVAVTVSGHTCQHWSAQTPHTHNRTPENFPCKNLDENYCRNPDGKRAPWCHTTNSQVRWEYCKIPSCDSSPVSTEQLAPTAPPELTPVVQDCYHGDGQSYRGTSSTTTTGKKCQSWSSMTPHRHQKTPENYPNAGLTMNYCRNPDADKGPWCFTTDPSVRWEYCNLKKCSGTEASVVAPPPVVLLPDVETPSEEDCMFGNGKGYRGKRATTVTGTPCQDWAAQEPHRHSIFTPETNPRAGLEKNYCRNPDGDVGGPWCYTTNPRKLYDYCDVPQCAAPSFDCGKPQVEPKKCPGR
T2 sequence (P00747 581-810 limits assumed): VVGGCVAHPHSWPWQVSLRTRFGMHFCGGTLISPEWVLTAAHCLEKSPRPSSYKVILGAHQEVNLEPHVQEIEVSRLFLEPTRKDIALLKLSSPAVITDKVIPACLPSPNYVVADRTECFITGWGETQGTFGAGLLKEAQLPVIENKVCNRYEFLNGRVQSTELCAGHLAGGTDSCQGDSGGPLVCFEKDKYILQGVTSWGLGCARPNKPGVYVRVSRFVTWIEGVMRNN
Description: (§1) Activated human plasma kallikrein (Enzyme Research Laboratories, HPKa 1303) was reacted with H-Pro-Phe-Arg-7-amido-4-methylcoumarin (H-Pro-Pre-Arg-AMC) (a fluorogenic substrate for plasma as well as pancreatic and urinary kallikreins; Bachem I-1295) and candidate inhibitory peptides to determine the IC50 of the inhibitor.
(§2) Ten 8-fold serial dilutions of peptides (10 mM DMSO stocks) were performed in DMSO and then added to TCNB (50 mM Tris-HCl pH 7.2, 150 mM NaCl, 10 mM CaCl2, 0.05% Brij-35) and sonicated. 50 μL of the peptide dilutions were added to microtitre plates (96 well, black non-binding surface, Corning, 3650) and incubated for 5 minutes at room temperature with 4 nM activated human kallikrein (final concentration after addition of fluorogenic substrate: 1 nM). The samples were then incubated for 1 hour at room temperature with 2 mM H-Pro-Phe-Arg-AMC (final concentration 500 μM). Relative Fluorescence Units (RFU) were measured at excitation/emission 360 nm/460 nm by a SpectraMax M3.
(§3) To determine the specificity of peptide inhibitors, an IC50 assay, as described in Example 4, was performed on a variety of serine proteases related to human plasma kallikrein. The enzymes tested include mouse plasma kallikrein (R&D Systems, Minneapolis, Minn.), and the human enzymes Factor VIIa (Enzyme Research Laboratories, South Bend, Ind.), Factor Xa (Enzyme Research Laboratories, South Bend, Ind.), Factor XIa (Enzyme Research Laboratories, South Bend, Ind.), Factor XIIa (Enzyme Research Laboratories, South Bend, Ind.), tissue kallikrein KLK13 (R&D Systems, Minneapolis, Minn.), thrombin (Enzyme Research Laboratories, South Bend, Ind.) and plasmin (Enzyme Research Laboratories, South Bend, Ind.).
(§4) Each enzyme was tested with the following specific fluorgenic substrates (available from Bachem; Torrance, Calif.): mouse plasma kallikrein (Pro-Phe-Arg-AMC), Factor VIIa (Boc-Val-Pro-Arg-AMC), Factor Xa (Boc-Gln-Gly-Arg-AMC), Factor XIa (Boc-Gln-Gly-Arg-AMC), Factor XIIa (Boc-Gln-Gly-Arg-AMC), KLK13 (Boc-Val-Pro-Arg-AMC), thrombin (Boc-Val-Pro-Arg-AMC) and plasmin (Boc-Val-Leu-Lys-AMC). Peptide inhibitors R2006, R2010, R2012, R2019, R2023, R2030, R2036, R2041, R2047, R2104 and R2051 were assayed.

Factor XIa = target: T3, Factor XIa (Homo sapiens, UniProt P03951); assay: Inhibitor specificity IC50 assay, Factor XIa (Boc-Gln-Gly-Arg-AMC); details: substrate Boc-Gln-Gly-Arg-AMC
T3 construct: Factor XIa (Enzyme Research Laboratories, South Bend, Ind.); purchased Enzyme Research Laboratories
T3 sequence (P03951 19-387 limits assumed): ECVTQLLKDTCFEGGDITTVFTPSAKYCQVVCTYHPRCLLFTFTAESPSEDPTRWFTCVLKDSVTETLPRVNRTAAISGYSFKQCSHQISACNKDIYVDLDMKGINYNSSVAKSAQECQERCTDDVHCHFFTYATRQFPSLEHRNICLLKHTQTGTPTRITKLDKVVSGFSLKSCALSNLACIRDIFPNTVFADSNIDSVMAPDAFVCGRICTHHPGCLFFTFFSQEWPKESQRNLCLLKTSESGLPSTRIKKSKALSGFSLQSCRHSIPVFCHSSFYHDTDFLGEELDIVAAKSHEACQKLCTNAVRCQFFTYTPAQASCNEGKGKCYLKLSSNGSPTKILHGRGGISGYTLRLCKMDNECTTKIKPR
T3 sequence (P03951 388-625 limits assumed): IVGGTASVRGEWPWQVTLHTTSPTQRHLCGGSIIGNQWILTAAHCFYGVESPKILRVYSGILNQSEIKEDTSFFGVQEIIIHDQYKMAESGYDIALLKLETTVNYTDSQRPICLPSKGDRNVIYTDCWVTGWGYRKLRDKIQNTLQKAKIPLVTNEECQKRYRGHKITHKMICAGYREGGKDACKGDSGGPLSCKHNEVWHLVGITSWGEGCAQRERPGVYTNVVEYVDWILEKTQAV
Description: as §1, §2, §3, §4

thrombin = target: T4, thrombin (Homo sapiens, UniProt P00734); assay: Inhibitor specificity IC50 assay, thrombin (Boc-Val-Pro-Arg-AMC); details: substrate Boc-Val-Pro-Arg-AMC
T4 construct: thrombin (Enzyme Research Laboratories, South Bend, Ind.); purchased Enzyme Research Laboratories
Description: as §1, §2, §3, §4

tissue kallikrein KLK13 = target: T5, tissue kallikrein KLK13 (Homo sapiens, UniProt Q9UKR3); assay: Inhibitor specificity IC50 assay, KLK13 (Boc-Val-Pro-Arg-AMC); details: substrate Boc-Val-Pro-Arg-AMC
T5 construct: purchased R&D Systems
T5 sequence (Q9UKR3 17-277): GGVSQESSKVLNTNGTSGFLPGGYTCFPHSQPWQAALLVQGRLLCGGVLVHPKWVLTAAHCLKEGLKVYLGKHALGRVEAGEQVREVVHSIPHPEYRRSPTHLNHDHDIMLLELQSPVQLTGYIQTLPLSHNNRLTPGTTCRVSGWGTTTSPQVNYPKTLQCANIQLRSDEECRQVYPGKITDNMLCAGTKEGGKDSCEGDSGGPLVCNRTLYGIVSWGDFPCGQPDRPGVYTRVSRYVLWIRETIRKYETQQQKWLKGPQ
Description: as §1, §2, §3, §4

Factor XIIa = target: T6, Factor XIIa (Homo sapiens, UniProt P00748); assay: Inhibitor specificity IC50 assay, Factor XIIa (Boc-Gln-Gly-Arg-AMC); details: substrate Boc-Gln-Gly-Arg-AMC
T6 construct: Factor XIIa (Enzyme Research Laboratories, South Bend, Ind.); purchased Enzyme Research Laboratories
T6 sequence (P00748 373-615 limits assumed): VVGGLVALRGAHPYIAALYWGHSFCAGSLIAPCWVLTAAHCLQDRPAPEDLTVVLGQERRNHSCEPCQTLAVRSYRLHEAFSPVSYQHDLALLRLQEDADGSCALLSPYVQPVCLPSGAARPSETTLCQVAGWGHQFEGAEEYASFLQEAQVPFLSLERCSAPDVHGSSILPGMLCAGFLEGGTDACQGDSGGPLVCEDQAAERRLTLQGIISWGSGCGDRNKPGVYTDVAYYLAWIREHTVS
Description: as §1, §2, §3, §4

Factor VIIa = target: T7, Factor VIIa (Homo sapiens, UniProt P08709); assay: Inhibitor specificity IC50 assay, Factor VIIa (Boc-Val-Pro-Arg-AMC); details: substrate Boc-Val-Pro-Arg-AMC
T7 construct: Factor VIIa (Enzyme Research Laboratories, South Bend, Ind.); purchased Enzyme Research Laboratories
T7 sequence (P08709 61-212 limits assumed): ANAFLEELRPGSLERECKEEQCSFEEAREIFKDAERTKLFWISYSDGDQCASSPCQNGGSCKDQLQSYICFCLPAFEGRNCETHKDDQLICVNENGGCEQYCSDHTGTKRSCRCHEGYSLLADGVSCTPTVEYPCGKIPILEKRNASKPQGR
T7 sequence (P08709 213-466 limits assumed): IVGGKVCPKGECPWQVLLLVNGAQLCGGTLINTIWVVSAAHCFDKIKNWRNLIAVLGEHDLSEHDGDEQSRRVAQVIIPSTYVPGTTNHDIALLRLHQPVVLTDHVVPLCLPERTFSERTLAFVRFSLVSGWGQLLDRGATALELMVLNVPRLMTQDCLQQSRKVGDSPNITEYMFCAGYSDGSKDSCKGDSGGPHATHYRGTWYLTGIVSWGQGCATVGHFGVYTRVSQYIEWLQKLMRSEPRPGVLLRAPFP
Description: as §2, §3, §4

Factor Xa = target: T8, Factor Xa (Homo sapiens, UniProt P00742); assay: Inhibitor specificity IC50 assay, Factor Xa (Boc-Gln-Gly-Arg-AMC); details: substrate Boc-Gln-Gly-Arg-AMC
T8 construct: Factor Xa (Enzyme Research Laboratories, South Bend, Ind.); purchased Enzyme Research Laboratories
T8 sequence (P00742 41-179 limits assumed): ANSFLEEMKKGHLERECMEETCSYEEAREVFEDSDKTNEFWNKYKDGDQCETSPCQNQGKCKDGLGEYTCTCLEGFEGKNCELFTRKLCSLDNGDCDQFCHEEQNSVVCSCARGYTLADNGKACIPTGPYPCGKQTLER
T8 sequence (P00742 235-488 limits assumed): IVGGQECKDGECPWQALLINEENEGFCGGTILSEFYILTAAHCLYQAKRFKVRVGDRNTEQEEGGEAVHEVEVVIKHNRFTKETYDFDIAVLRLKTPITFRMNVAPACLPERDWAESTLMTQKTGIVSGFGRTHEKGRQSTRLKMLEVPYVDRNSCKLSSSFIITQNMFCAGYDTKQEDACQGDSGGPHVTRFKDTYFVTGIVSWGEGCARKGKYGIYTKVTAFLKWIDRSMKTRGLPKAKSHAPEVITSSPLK
Description: as §1, §2, §3, §4

[1] = Kallikrein inhibitory activity, 1 nM activated human kallikrein, 500 μM H-Pro-Phe-Arg-AMC, 1 hour room temperature, read-out: Avg. IC50

In the case of `CCCCCCC(=O)N[C@H]1CSCc2cccc(c2)CSC[C@@H](C(=O)N[C@@H](CCCNC(=N)N)C(=O)N[C@H](C(N)=O)C(C)C)NC(=O)[C@H]([C@@H](C)CC)NC(=O)[C@H](CO)NC(=O)[C@H](CCC(=O)O)NC1=O` [Compound R2041, [mXylyl(1,5)]Heptanoyl-CESICRV-NH2] (Heptanoyl-CESICRV-NH2; linker 1-5 via mXylylene), the IC50 (human plasma kallikrein; [1]) is reported as 0.0242 µM, the IC50 (plasmin) is reported as over 100 µM and the IC50 (Factor XIa) is reported as over 5.4 µM. The IC50 (thrombin) was over 100 µM, the IC50 (tissue kallikrein KLK13) was over 100 µM and the IC50 (Factor XIIa) was over 100 µM. The IC50 (Factor VIIa) was over 17.9 µM and the IC50 (Factor Xa) was over 7 µM.
Work on `CC(=O)N[C@H]1CSCc2cccc(c2)CSC[C@@H](C(=O)N[C@@H](CCCNC(=N)N)C(=O)N[C@H](C(N)=O)C(C)(C)C)NC(=O)[C@H](c2ccccc2)NC(=O)[C@H](CO)NC(=O)[C@H](C)NC1=O` [Compound R2036, [mXylyl(1,5)]Ac-CAS-Phg-CR-Tbg-NH2] (Ac-CAS[Phg]CR[Tle]-NH2; linker 1-5 via mXylylene) yielded an IC50 (human plasma kallikrein; [1]) of 0.0064 µM, an IC50 (plasmin) of over 19.5 µM and an IC50 (Factor XIa) of over 4.8 µM. It also gave an IC50 (thrombin) of over 100 µM, an IC50 (tissue kallikrein KLK13) of over 100 µM and an IC50 (Factor XIIa) of over 100 µM. The IC50 (Factor VIIa) was over 100 µM and the IC50 (Factor Xa) was over 7 µM.
With `CC[C@H](C)[C@@H]1NC(=O)[C@H](CO)NC(=O)[C@H](CCC(=O)O)NC(=O)[C@@H](NC(=O)[C@@H](N)CCSC)CSCc2cccc(c2)CSC[C@@H](C(=O)N[C@@H](CCCNC(=N)N)C(=O)N[C@H](C(N)=O)C(C)C)NC1=O` [Compound R2006, [mXylyl(2,6)]MCESICRV-NH2] (H-MCESICRV-NH2; linker 2-6 via mXylylene) the IC50 (human plasma kallikrein; Inhibitor specificity table, read-out: Human Kallikrein IC50) was 0.025 µM, the IC50 (plasmin) was over 100 µM and the IC50 (Factor XIa) was over 11.6 µM. For the same compound, the IC50 (thrombin) was over 100 µM, the IC50 (tissue kallikrein KLK13) was over 100 µM and the IC50 (Factor XIIa) was over 100 µM. It also gave an IC50 (Factor VIIa) of over 100 µM and an IC50 (Factor Xa) of over 7 µM.
For `CC[C@H](C)[C@@H]1NC(=O)[C@H](CO)NC(=O)[C@H](CCC(=O)O)NC(=O)CCSCc2cccc(c2)CSC[C@@H](C(=O)N[C@@H](CCCNC(=N)N)C(=O)N[C@H](C(N)=O)C(C)C)NC1=O` [Compound R2051, [mXylyl(1,5)](des-NH2)C-ESICRV-NH2] ([Mpa]ESICRV-NH2; linker 1-5 via mXylylene), the IC50 (human plasma kallikrein; [1]) was 0.0129 µM, the IC50 (plasmin) was over 100 µM and the IC50 (Factor XIa) was over 8.3 µM. For the same compound, the IC50 (thrombin) was over 100 µM, the IC50 (tissue kallikrein KLK13) was over 100 µM and the IC50 (Factor XIIa) was over 100 µM. For the same compound, the IC50 (Factor VIIa) was over 100 µM and the IC50 (Factor Xa) was over 100 µM.
